Measured values: paper PMC8329197, “Compounds targeting OSBPL7 increase ABCA1-dependent cholesterol efflux preserving kidney function in two models of kidney disease” (Nature Communications, 2021)
Where “and” joins values, the source holds several entries; their conditions need not be identical. Identical values can stand only once.

Assays:
human THP1 macrophages = assay: apoAI-mediated (ABCA1) cholesterol efflux from cholesterol-loaded THP1 macrophages; format: cell-based; design: ABCA1 Efflux %: dose or concentration left out as unconfirmed; settings: for ApoA1-mediated Cholesterol Efflux (Fold increase over vehicle control), mean / ApoA1-mediated Cholesterol Efflux (%) / ApoA1-mediated Cholesterol Efflux (Fold increase over vehicle control): 5 µM; for ApoA1-mediated Cholesterol Efflux (Fold increase over vehicle control), mean / ApoA1-mediated Cholesterol Efflux (%) / ApoA1-mediated Cholesterol Efflux (Fold increase over vehicle control) / ABCA1 Efflux active/ inactive: THP1 cells; for ApoA1-mediated Cholesterol Efflux (Fold increase over vehicle control), mean: mean of 3; for ApoA1-mediated Cholesterol Efflux (%) / ApoA1-mediated Cholesterol Efflux (Fold increase over vehicle control): single experiments; for Induction of ABCA1 cholesterol efflux: THP1 cells (Fig. 3a, 4a); for EC50: THP-1, apoAI-dependent cholesterol efflux from human THP1 cells; for ABCA1 percentage of induction, average: average of 3; for ABCA1 Efflux %: average(SEM); for ABCA1 percentage of induction: single experiments (3 per compound); for ABCA1 Efflux active/ inactive: vs. the effect of T1317
[1] = molecular target: human cannabinoid 1 receptor (hCB1-R) (Homo sapiens, UniProt P21554); assay: Potency for binding to the CB1R in vitro (Ki); settings: for Ki: human CB1 receptor binding
Chain of human cannabinoid 1 receptor (hCB1-R) (P21554 whole entry): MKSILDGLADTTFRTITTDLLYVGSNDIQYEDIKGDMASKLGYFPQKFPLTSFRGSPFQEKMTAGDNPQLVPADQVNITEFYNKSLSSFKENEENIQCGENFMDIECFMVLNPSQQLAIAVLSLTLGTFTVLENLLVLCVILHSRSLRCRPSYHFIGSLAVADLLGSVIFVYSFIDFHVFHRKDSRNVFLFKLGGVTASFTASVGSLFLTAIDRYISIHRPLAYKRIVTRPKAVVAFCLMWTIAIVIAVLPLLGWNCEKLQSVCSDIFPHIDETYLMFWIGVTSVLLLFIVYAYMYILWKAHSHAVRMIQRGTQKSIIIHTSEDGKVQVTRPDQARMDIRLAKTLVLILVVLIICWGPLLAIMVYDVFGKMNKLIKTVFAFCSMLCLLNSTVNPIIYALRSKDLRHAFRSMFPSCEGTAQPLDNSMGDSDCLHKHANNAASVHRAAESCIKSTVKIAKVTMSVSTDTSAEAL

OSBPL7 = test system: T1, OSBPL7; assay: Competition with ^3H-Cpd K UV cross-linking to FLAG-tagged OSBPL7 in HEK293 cells (immunoprecipitation, autoradiography); format: binding, human; design: OSBP7 percentage of inhibition / OSBP7 percentage of inhibition, average: concentration or dose not given beside the values; OSBPL7 Competition %: dose or concentration left out as unconfirmed; settings: for OSBP7 percentage of inhibition, average: average of 3; for OSBPL7 Competition %: average(SEM); for OSBP7 percentage of inhibition: single experiments (3 per compound)
T1 construct: Plasmids expressing each as a full-length protein with a C-terminal FLAG tag were obtained; expressed in transfected cells; host or cells: HEK293
Protocol: Briefly, a plasmid expressing a candidate target of interest fused with a FLAG tag was transfected into HEK293 cells. After 24 h, tritiated compound K at a concentration capable of inducing ABCA1-mediated cholesterol efflux (1.0 μM) was added for 3 h, then the live cells were exposed to UV-light (ʎ = 336 nm) to query potential compound/target cross-linking in situ. Cell lysates were prepared, the expressed protein was then selectively immunoprecipitated using an anti-FLAG antibody coupled to sepharose beads, bound proteins were separated by SDS-PAGE, and two identical blots were prepared and probed by western blot and by autoradiography to detect protein expression and presence or absence of compound crosslinking, respectively. The flow chart of this screen is illustrated in Fig. 2. Figure 2d illustrates the ability of Cpd A and Cpd G to displace tritiated Cpd K from overexpressed and immunoprecipitated OSBPL7. Figure 3b illustrates the use of this assay to detect binding of tritiated Cpd K to overexpressed and immunoprecipitated variants of OSBPL7 containing point mutations in the predicted oxysterol binging pocket of OSBPL7. The advantages of this method are: i. the use of plasmid transfection leads to high expression of each candidate which reduces the likelihood to miss an authentic target for those which may be expressed at low endogenous levels, ii. the interaction of the chemical probe with its target occurs in a relevant biological context (live cells) at a pharmacologically active concentration, and iii. immunoprecipitation allows the expressed protein of interest to be purified from background proteins, substantially improving the signal/noise ratio.

ABCA1 mRNA = ABCA1 mRNA by quantitative real-time PCR in cholesterol-loaded THP1 macrophages; format: cell-based, human; settings: 24 h; for Effect on ABCA1 mRNA: up to 25 μM, THP1 macrophages
Protocol: RNA was isolated using RNEasy Plus Mini kit (Qiagen). Reverse transcription was performed using qScript cDNA Super Mix (Quantabio) according to the manufacturer’s instructions. Quantitative real-time PCR was performed using TaqMan Fast Universal PCR Master Mix and Taqman gene expression assays (Supplementary Table 7).

normal human fibroblasts = assay: Cholesterol efflux to apoAI in normal human fibroblasts; settings: for Cholesterol Efflux (%), Normal Fibroblasts: efflux to apoAI, Cpd H, Cpd J 10 μM, single experiments
[2] = test system: Tangier (ABCA1-deficient) fibroblasts; assay: Cholesterol efflux in Tangier (ABCA1-deficient) fibroblasts; settings: for Cholesterol Efflux (%), Tangier Fibroblasts: ABCA1-deficient, Cpd H, Cpd J 10 μM, single experiments
[3] = test system: T2, OSBPL7 single mutations in the putative ORD; assay: ^3H-Cpd K binding to OSBPL7 single mutants (cross-linking/immunoprecipitation); design: species or system human; settings: K636A vs wild type
T2 construct: Plasmids expressing each as a full-length protein with a C-terminal FLAG tag were obtained; expressed in transfected cells; host or cells: HEK293
Excerpt: Based on the model, we identified key amino acid residues predicted to line the OSBPL7 ligand-binding pocket, and introduced a series of single mutations. Each mutant was transfected into cells and tested for ^3H-Cpd K binding. Mutation of lysine 636 to alanine reduced the ability of Cpd K to be crosslinked to OSBPL7 by ~75% (Fig. 3b). […] The homology model also predicts that a hydrophobic beta sheet lines the pocket, defined by amino acids that are conserved in the ORDs of other OSBPs (Ile641, Val616, Val618, and Lys636).
Briefly, a plasmid expressing a candidate target of interest fused with a FLAG tag was transfected into HEK293 cells. After 24 h, tritiated compound K at a concentration capable of inducing ABCA1-mediated cholesterol efflux (1.0 μM) was added for 3 h, then the live cells were exposed to UV-light (ʎ = 336 nm) to query potential compound/target cross-linking in situ. Cell lysates were prepared, the expressed protein was then selectively immunoprecipitated using an anti-FLAG antibody coupled to sepharose beads, bound proteins were separated by SDS-PAGE, and two identical blots were prepared and probed by western blot and by autoradiography to detect protein expression and presence or absence of compound crosslinking, respectively. The flow chart of this screen is illustrated in Fig. 2. […]

Col4a3 KO mice = assay: Alport syndrome model: ACR, serum creatinine, BUN, body weight (also vs ramipril); settings: individual mouse values
[4] = 8-week old Col4a3 KO mice, 28 days treatment starting at the age of 4 weeks

SMILES	ABCA1 percentage of induction, average (human THP1 macrophages) [%]	ABCA1 Efflux % (human THP1 macrophages)	ABCA1 percentage of induction (human THP1 macrophages)	Ki [1] [nM]	OSBP7 percentage of inhibition, average (OSBPL7) [%]	OSBPL7 Competition % (OSBPL7)	OSBP7 percentage of inhibition (OSBPL7)	ABCA1 Efflux active/ inactive (human THP1 macrophages)	further results
CCCCC/C=C\C/C=C\C/C=C\C/C=C\CCCC(=O)NCCCl [ACEA, arachidonyl choloroethylamine, reference compound]									ApoA1-mediated Cholesterol Efflux (Fold increase over vehicle control), mean (human THP1 macrophages): 0.962 fold; ApoA1-mediated Cholesterol Efflux (%) (human THP1 macrophages): 3% and 2.5% and 1.4%; ApoA1-mediated Cholesterol Efflux (Fold increase over vehicle control) (human THP1 macrophages): 1.047 fold and 1.044 fold and 0.796 fold; Induction of ABCA1 cholesterol efflux (human THP1 macrophages): inactive
O=C(N[C@@H]1CCCC[C@H]1O)c1cnc(OCC2CC2)c(-c2ccc(Cl)cc2)c1 [Cpd H]	106	106(6.8) %	112% and 92% and 113%	11.4 ± 4.5	55	55(5.0) %	49% and 51% and 65%		EC50 (human THP1 macrophages): 120 nM; Effect on ABCA1 mRNA (ABCA1 mRNA): no effect; Cholesterol efflux to apoAI from normal fibroblasts (normal human fibroblasts): increase cholesterol efflux to apoAI from normal; Cholesterol Efflux (%), Normal Fibroblasts (normal human fibroblasts): 3.97% and 4.44% and 4.67%; Cholesterol efflux to apoAI from ABCA1-deficient fibroblasts [2]: not from ABCA1-deficient fibroblasts; Cholesterol Efflux (%), Tangier Fibroblasts [2]: 1.75% and 1.88% and 1.89%
O=C(N[C@@H]1CCCC[C@H]1O)c1cnc(OCC(F)(F)F)c(-c2ccc(Cl)cc2)c1 [Cpd J]	100	100(15.0) %	83% and 130% and 87%	12.4 ± 6.7	40	40(12.2) %			Effect on ABCA1 mRNA (ABCA1 mRNA): no effect; Cholesterol efflux to apoAI from normal fibroblasts (normal human fibroblasts): increase cholesterol efflux to apoAI from normal; Cholesterol Efflux (%), Normal Fibroblasts (normal human fibroblasts): 5.75% and 6.18% and 6.91%; Cholesterol efflux to apoAI from ABCA1-deficient fibroblasts [2]: not from ABCA1-deficient fibroblasts; Cholesterol Efflux (%), Tangier Fibroblasts [2]: 1.8% and 2.06% and 2.65%
[N-]=[N+]=Nc1ccc(-c2cc(C(=O)N[C@@H]3CCCC[C@H]3O)cnc2OCC2CC2)cc1Cl [Cpd K, 5-(4-azido-3-chlorophenyl)-6-(cyclopropylmethoxy)-N-[(1R,2R)-2-hydroxycyclohexyl]-3-pyridine-carboxamide]	49	49(10.7) %		2570	68	68(3.8) %	62% and 75% and 68%		Fold reduced affinity for hCB1R ([1]; vs Cpd H): more than 200 fold; Competition for ^3H-Cpd K binding to OSBPL7 (OSBPL7; unlabeled Cpd K at 50-fold excess, Cpd A, Cpd G 10 and 50 µM): effectively competed; Reduction of binding/crosslinking to OSBPL7 by mutation K636A [3]: ~ 75%
O=C(N[C@H]1CCCC[C@H]1O)c1cnc(OCC(F)(F)F)c(-c2ccc(Cl)c(Cl)c2)c1 [Cpd L]	104	104(18.8) %	94% and 77% and 140%	7000	53	53(4.7) %	55% and 44% and 60%		
O=C(Nc1cnc(OCC(F)(F)F)c(-c2ccc(Cl)cc2)c1)c1cccnc1 [Cpd M]	113	133(42.5) %		> 10000	98	98(5.2) %	107% and 97% and 89%		
CCCCNC(=O)CCc1ccc(-c2cc(C(=O)N[C@@H]3CCCC[C@H]3O)cnc2OCC2CC2)cc1 [Cpd N]	24	24(5.0) %			38	38(9.5) %		Inactive	
Cn1cccc(NC(=O)c2cc(-c3ccc(Cl)cc3)c(OCC(F)(F)F)cn2)c1=O [Cpd P]	3.67	4(0.9) %	4% and 5% and 2%		0	0(0) %	0%	Inactive	
O=C(N[C@@H]1CCCOC1=O)c1cc(-c2ccc(Cl)cc2)c(OCC(F)(F)F)cn1 [Cpd Q]	2	2(0.6) %	1% and 2% and 3%		8	8(2.2) %	12% and 6% and 5%	Inactive	
Cc1cc(-c2cc(NC(=O)c3cccnc3)cnc2OCC(F)(F)F)ccn1 [Cpd R]	-10	-10(5) %			17	17(5.0) %		Inactive	
Cc1cncc(-c2cc(NC(=O)c3cccnc3)cnc2OCC(F)(F)F)c1 [Cpd S]	2.67	3(0.8) %	1% and 3% and 4%		0.333	0(0.3) %	0% and 1%	Inactive	
CCOC(=O)C(CCc1ccccc1)NC(C)C(=O)N1C(C(=O)O)CC2CCCC21 (stereo not drawn) [Ramp]									BUN (Col4a3 KO mice; [4]): 33 mg/dL and 30 mg/dL and 43 mg/dL and 36 mg/dL and 26 mg/dL and 46 mg/dL and 42 mg/dL and 39 mg/dL; Serum Creatinine (Col4a3 KO mice; [4]): 1.99 µg/mL and 0.12 µg/mL and 2 µg/mL and 3.6 µg/mL and 0.9 µg/mL and 0.28 µg/mL and 1.66 µg/mL
O=S(=O)(c1ccccc1)N(CC(F)(F)F)c1ccc(C(O)(C(F)(F)F)C(F)(F)F)cc1 [T1317, reference compound]									Upregulation of ABCA1 mRNA (ABCA1 mRNA; cholesterol-loaded THP1 macrophages): ~ 5 fold; Cholesterol efflux to apoAI from normal fibroblasts (normal human fibroblasts): increase cholesterol efflux to apoAI from normal; Cholesterol Efflux (%), Normal Fibroblasts (normal human fibroblasts): 5.16% and 5.7% and 5.82%; Cholesterol efflux to apoAI from ABCA1-deficient fibroblasts [2]: not from ABCA1-deficient fibroblasts; Cholesterol Efflux (%), Tangier Fibroblasts [2]: 2.04% and 2.39% and 2.47%
Cc1c(C(=O)c2cccc3ccccc23)c2cccc3c2n1[C@H](CN1CCOCC1)CO3 [WIN55-212-2, reference compound]									ApoA1-mediated Cholesterol Efflux (Fold increase over vehicle control), mean (human THP1 macrophages): 0.882 fold; ApoA1-mediated Cholesterol Efflux (%) (human THP1 macrophages): 2.57% and 2.5% and 1.3%; ApoA1-mediated Cholesterol Efflux (Fold increase over vehicle control) (human THP1 macrophages): 0.895 fold and 1.016 fold and 0.735 fold; Induction of ABCA1 cholesterol efflux (human THP1 macrophages): inactive
[3H]c1nc(OCC2CC2)c(-c2ccc(N=[N+]=[N-])c(Cl)c2)c([3H])c1C(=O)N[C@@H]1CCCC[C@H]1O [^3H-Cpd K]				2570					EC50 (human THP1 macrophages): 200 nM; Reduction of binding/crosslinking to OSBPL7 by mutation K636A [3]: ~ 75%
CCOC(=O)[C@H](CCc1ccccc1)N[C@@H](C)C(=O)N1[C@H](C(=O)O)C[C@@H]2CCC[C@@H]21 [ramipril, reference compound]									Albumin to Creatinine ratio (Col4a3 KO mice; spot urines, 8-week old Col4a3 KO mice treated from the age of 4 weeks, listed as Ram): 31.85 mg Alb. /mg Cre and 41.0281 mg Alb. /mg Cre and 31.514 mg Alb. /mg Cre and 21.7026 mg Alb. /mg Cre and 31.192 mg Alb. /mg Cre
Cc1c(C(=O)NN2CCCCC2)nn(-c2ccc(Cl)cc2Cl)c1-c1ccc(Cl)cc1 [rimonabant, reference compound]	0	0(0) %	0%		0	0(0) %	0%	Inactive	ApoA1-mediated Cholesterol Efflux (%) (human THP1 macrophages): 3.95% and 2.4% and 1.2%; Induction of ABCA1 cholesterol efflux (human THP1 macrophages): did not induce ABCA1 cholesterol efflux
